Assays:
[1] = system: Oryza sativa, (L.) Tebonnet; test: Rice tolerance to post-transplant applications under flooded paddy conditions (Example 187), ORYSAT (Rice, Tebonnet); settings: rated three to four weeks after treatment
[2] = system: Monochoria vaginalis, Presl.; test: Preemergence weed control under flooded paddy conditions, MOOVA (Monochoria); type: in vivo; settings: preemergence, flooded paddy, rated three to four weeks after treatment; for herbicidal effect rating, MOOVA: meaning of each grade not given here
[3] = system: Sagittaria pygmaea, L.; test: Preemergence weed control under flooded paddy conditions, SAGPY (Arrowhead (Pygmaea)); type: in vivo; settings: preemergence, flooded paddy, rated three to four weeks after treatment; for herbicidal effect rating, SAGPY: meaning of each grade not given here
[4] = system: Echinochloa oryzoides (Ard.) Fritsch.; test: Preemergence weed control under flooded paddy conditions, ECHORC (Watergrass (Calif.)); type: in vivo; settings: preemergence, flooded paddy, rated three to four weeks after treatment; for herbicidal effect rating, ECHORC: meaning of each grade not given here
[5] = system: Cyperus serotinus, Rottb.; test: Preemergence weed control under flooded paddy conditions, CYPSE (Flatsedge); type: in vivo; settings: preemergence, rated three to four weeks after treatment; for herbicidal effect rating, CYPSE: meaning of each grade not given here
[6] = system: Cyperus iria; test: Preemergence weed control under flooded paddy conditions, CYPIR (Rice Flatsedge); type: in vivo; settings: preemergence, flooded paddy, rated three to four weeks after treatment; for herbicidal effect rating, CYPIR: meaning of each grade not given here

CC/C(C=O)=C\c1nsc2ccc(-n3c(=O)cc(C(F)(F)F)n(C)c3=O)cc12 [Example 567, 1,2-Benzisothiazole-3-acrylaldehyde, 5-[3,6-dihydro-3-methyl-2,6-dioxo-4-(trifluoromethyl)-1(2H)-pyrimidinyl]-alpha-ethyl-, (E)-]
herbicidal effect rating ORYSAT ([1]; Rate 0.0320 kg/ha): 0.0 | herbicidal effect rating ORYSAT ([1]; Rate 0.0620 kg/ha): 0.0 | herbicidal effect rating ORYSAT ([1]; Rate 0.1250 kg/ha): 1.0 | herbicidal effect rating ORYSAT ([1]; Rate 0.2500 kg/ha): 2.0 | herbicidal effect rating, MOOVA ([2]; Rate 0.0320 kg/ha): 0.0 | herbicidal effect rating, MOOVA ([2]; Rate 0.0620 kg/ha): 3.0 | herbicidal effect rating, MOOVA ([2]; Rate 0.1250 kg/ha): 9.0 | herbicidal effect rating, MOOVA ([2]; Rate 0.2500 kg/ha): 9.0 | herbicidal effect rating, SAGPY ([3]; Rate 0.0320 kg/ha): 0.0 | herbicidal effect rating, SAGPY ([3]; Rate 0.0620 kg/ha): 0.0 | herbicidal effect rating, SAGPY ([3]; Rate 0.1250 kg/ha): 0.0 | herbicidal effect rating, SAGPY ([3]; Rate 0.2500 kg/ha): 0.0 | herbicidal effect rating, ECHORC ([4]; Rate 0.0320 kg/ha): 0.0 | herbicidal effect rating, ECHORC ([4]; Rate 0.0620 kg/ha): 0.0 | herbicidal effect rating, ECHORC ([4]; Rate 0.1250 kg/ha): 2.0 | herbicidal effect rating, ECHORC ([4]; Rate 0.2500 kg/ha): 4.0 | herbicidal effect rating, CYPSE ([5]; Rate 0.0320 kg/ha): 0.0 | herbicidal effect rating, CYPSE ([5]; Rate 0.0620 kg/ha): 0.0 | herbicidal effect rating, CYPSE ([5]; Rate 0.1250 kg/ha): 0.0 | herbicidal effect rating, CYPSE ([5]; Rate 0.2500 kg/ha): 0.0 | herbicidal effect rating, CYPIR ([6]; Rate 0.0320 kg/ha): 4.0 | herbicidal effect rating, CYPIR ([6]; Rate 0.0620 kg/ha): 9.0 | herbicidal effect rating, CYPIR ([6]; Rate 0.1250 kg/ha): 4.0 | herbicidal effect rating, CYPIR ([6]; Rate 0.2500 kg/ha): 9.0

Cc1ccc(CS(=O)(=O)NC(=O)c2nsc3ccc(-n4c(=O)cc(C(F)(F)F)n(C)c4=O)cc23)cc1 [Example 464, 1,2-Benzisothiazole-3-carboxamide, 5-[3,6-dihydro-3-methyl-2,6-dioxo-4-(trifluoromethyl)-1(2H)-pyrimidinyl]-N-[(p-methylbenzyl)sulfonyl]-]
ORYSAT herbicidal rating (rice tolerance) ([1]; 0.0320 kg/ha): 0.0 | ORYSAT herbicidal rating (rice tolerance) ([1]; 0.0620 kg/ha): 2.0 | ORYSAT herbicidal rating (rice tolerance) ([1]; 0.1250 kg/ha): 2.0 | ORYSAT herbicidal rating (rice tolerance) ([1]; 0.2500 kg/ha): 4.0 | MOOVA herbicidal rating ([2]; 0.0320 kg/ha): 7.0 | MOOVA herbicidal rating ([2]; 0.0620 kg/ha): 9.0 | MOOVA herbicidal rating ([2]; 0.1250 kg/ha): 9.0 | MOOVA herbicidal rating ([2]; 0.2500 kg/ha): 6.0 | SAGPY herbicidal rating ([3]; 0.0320 kg/ha): 0.0 | SAGPY herbicidal rating ([3]; 0.0620 kg/ha): 0.0 | SAGPY herbicidal rating ([3]; 0.1250 kg/ha): 6.0 | SAGPY herbicidal rating ([3]; 0.2500 kg/ha): 4.0 | ECHORC herbicidal rating ([4]; 0.0320 kg/ha): 6.0 | ECHORC herbicidal rating ([4]; 0.1250 kg/ha): 6.0 | ECHORC herbicidal rating ([4]; 0.2500 kg/ha): 9.0 | CYPSE herbicidal rating ([5]; 0.0320 kg/ha): 0.0 | CYPSE herbicidal rating ([5]; 0.0620 kg/ha): 0.0 | CYPSE herbicidal rating ([5]; 0.1250 kg/ha): 0.0 | CYPSE herbicidal rating ([5]; 0.2500 kg/ha): 7.0 | CYPIR herbicidal rating ([6]; 0.0320 kg/ha): 0.0 | CYPIR herbicidal rating ([6]; 0.0620 kg/ha): 3.0 | CYPIR herbicidal rating ([6]; 0.1250 kg/ha): 3.0 | CYPIR herbicidal rating ([6]; 0.2500 kg/ha): 5.0

Reference: patent EP0908457B1, “3-(1,2-benzisothiazol- and isoxazol-5-Y1)-2,4(1H,3H)-pyrimidinedione or thione and 3-(1,2-benzisothiazol- and isoxazol-5-y1)-4(3H)-pyrimidinone or thione herbicidal agents” (BASF AKTIENGESELLSCHAFT, priority 1997, dated 1999)
